Key:
[1] = cited from earlier work; for oral absorption: taken orally
[2] = test system: colonic cancer cells HCT116; experiment: HCT116 colonic cancer xenograft in nude mice, two weeks of drug delivery (Embodiment 1): cancer volume and weight; format: in vivo; conditions: HCT116, ig, within 2 weeks, vs solvent group, FIG. 1-3
Source text: Nude mice were transplanted with colonic cancer cells HCT116; after the cancer volumes reached 200-300 mm3, the mice were randomly grouped, 8 pieces in each group; the mice were fed with drugs for two weeks. The drug delivery solution can be seen in Table 2 below: […]

[3] = test system: dihydropyrimidine dehydrogenase (DPD); conditions: cited from earlier work
[4] = cited from earlier work

Row | SMILES | t1/2 ([1]; in vivo) | oral absorption [1] | anti-cancer activities when individually used [4] | also measured
1 | O=c1[nH]cc(F)c(=O)[nH]1 [5-Fluorouracil (5-FU), 5-Fluorouracil] | absorption t1/210~20 min, | Incomplete oral |  | 
2 | CCCCCOC(=O)Nc1nc(=O)n([C@@H]2O[C@H](C)[C@@H](O)[C@H]2O)cc1F [Capecitabine, 5′-deoxy-5-fluoro-N[(pentyloxy)carbonyl]cytidine] | orally. t1/2 0.5~1.0 h. | Quickly absorbed by |  | volume and weight of the cancer [2]: failed to reduce the volume and weight of the cancer; 5-FU concentration in the cancer tissues versus that in the blood ([1]; after the drug is taken orally): is 100 times higher
3 | Oc1cc(O)c(Cl)cn1 [Gimeracil (CDHP), 2,4-dyhydroxy-5-chloro pyridine] |  |  | no obvious anti-cancer activities | 5-FU degradation inhibition effect relative to uracil [3]: 180 times that of the uracil; DPD inhibiting effect relative to uracil ([3]; reversible inhibitor of the DPD): 180 times that of uracil
4 | O=C(O)c1nc(=O)[nH]c(=O)[nH]1 [Oteracil potassium (OXO), Oteracil potassium] |  |  | no obvious anti-cancer activities | 
5 | O=c1[nH]c(=O)n(C2CCCO2)cc1F (centres unmarked) [Tegafur (FT-207), 1-(etrahydro-2-furyl)-5-fluoro-2,4(1H,3H)-pyrimidinedione] | absorption t1/25 h. | Good oral |  | lipid solubility ([1]; in vivo): tract. It has higher; discharged in the original form along with the urine ([1]; within 24 h after drug delivery): 23% is discharged

Reference: patent US20200022965A1, “PHARMACEUTICAL COMPOSITION FOR CANCER TREATMENT AND USE THEREOF” (priority 2016, published 2020)
